The record followed here is ChEMBL document CHEMBL4376829, “Discovery and biological evaluation of vinylsulfonamide derivatives as highly potent, covalent TEAD autopalmitoylation inhibitors” (Eur J Med Chem, 2019).

The source made the active and inactive calls. The rule behind the calls is not given here.

As a reminder, the inhibition is the relative decrease from the control value, in per cent. The IC50 is the concentration that gives 50% inhibition. The term Kd denotes the constant that tells how readily two partners part at equilibrium. As usually defined, the ΔTm is the change in melting temperature against a reference sample.

Assay [1] deals with T1, Transcriptional enhancer factor TEF-3 (Homo sapiens, UniProt Q15561). As to the kind of experiment: Inhibition of N-terminal His6 tagged human TEAD4-YBD (217 to 434 residues) expressed in Escherichia coli C43 (DE3) cells assessed as reduction in autopalmitoylation at 800 nM preincubated for 2 hrs followed by palmitoyl alkyne-coenzyme A addition and measured after 30 mins by immunoblot analysis relative to control. (A western blot detects proteins with antibodies after separation by electrophoresis.)

Assay [2] concerns the target T1, Transcriptional enhancer factor TEF-3. Kind of assay: Inhibition of N-terminal His6 tagged human TEAD4-YBD (217 to 434 residues) expressed in Escherichia coli C43 (DE3) cells assessed as reduction in autopalmitoylation at 200 nM preincubated for 2 hrs followed by palmitoyl alkyne-coenzyme A addition and measured after 30 mins immunoblot analysis relative to control.

For assay [3] the target is unchanged. Kind of assay: Inhibition of N-terminal His6 tagged human TEAD4-YBD (217 to 434 residues) expressed in Escherichia coli C43 (DE3) cells assessed as reduction in autopalmitoylation at 50 uM preincubated for 2 hrs followed by palmitoyl alkyne-coenzyme A addition and measured after 30 mins by immunoblot analysis.
The target is the same in assay [4]. Kind of assay: Inhibition of N-terminal His6-tagged human TEAD4 YAP binding domain (217 to 434 residues) expressed in Escherichia coli C43 (DE3) cells assessed reduction in autopalmitoylation preincubated for 2 hrs followed by palmitoyl alkyne coenzyme A addition and measured after 30 mins by immunoblot analysis.
The target is the same in assay [5]. As to the kind of experiment: Binding affinity to TEAD4 (unknown origin) assessed as induction of protein folding by SYPRO-dye based thermal shift assay.
For assay [6] the target is unchanged. As to the kind of experiment: Binding affinity to TEAD4 (unknown origin) assessed as change in melting temperature by fluorescence based thermal shift assay.
The target is the same in assay [7]. As to the kind of experiment: Competitive binding affinity to N-terminal His6 tagged human TEAD4 (217 to 434 residues) expressed in Escherichia coli C43 (DE3) cells at 200 uM in presence of palmitoyl CoA by CPMG NMR spectral analysis.
The target is the same in assay [8]. Kind of assay: Binding affinity to N-terminal His6 tagged human TEAD4-YBD (217 to 434 residues) expressed in Escherichia coli C43 (DE3) cells by SPR analysis. A general note: SPR reads the build-up and loss of mass on a sensor chip optically.
For assay [9] the target is unchanged. Kind of assay: Binding affinity to TEAD4 (unknown origin) assessed as change in melting temperature at protein to compound ratio of 1:40 by SYPRO orange dye based thermal shift assay.
Assay [10] has the same target. As to the kind of experiment: Binding affinity to TEAD4 (unknown origin) assessed as change in melting temperature at protein to compound ratio of 1:10 by SYPRO orange dye based thermal shift assay.
The target is the same in assay [11]. Kind of assay: Binding affinity to N-terminal His6 tagged human TEAD4 (217 to 434 residues) expressed in Escherichia coli C43 (DE3) cells at 200 uM by CPMG NMR spectral analysis.
For assay [12] the target is unchanged. Kind of assay: Binding affinity to N-terminal His6 tagged human TEAD4 (217 to 434 residues) expressed in Escherichia coli C43 (DE3) cells at 200 uM by STD NMR spectral analysis.
Assay [13] has the same target. As to the kind of experiment: Binding affinity to N-terminal His6 tagged human TEAD4 (217 to 434 residues) expressed in Escherichia coli C43 (DE3) cells incubated for 30 mins by isothermal Titration Calorimetry. On the technique in general: ITC needs no label: the signal is the heat of the interaction.

T1 sequence (Q15561 whole entry, the tested form may be a part): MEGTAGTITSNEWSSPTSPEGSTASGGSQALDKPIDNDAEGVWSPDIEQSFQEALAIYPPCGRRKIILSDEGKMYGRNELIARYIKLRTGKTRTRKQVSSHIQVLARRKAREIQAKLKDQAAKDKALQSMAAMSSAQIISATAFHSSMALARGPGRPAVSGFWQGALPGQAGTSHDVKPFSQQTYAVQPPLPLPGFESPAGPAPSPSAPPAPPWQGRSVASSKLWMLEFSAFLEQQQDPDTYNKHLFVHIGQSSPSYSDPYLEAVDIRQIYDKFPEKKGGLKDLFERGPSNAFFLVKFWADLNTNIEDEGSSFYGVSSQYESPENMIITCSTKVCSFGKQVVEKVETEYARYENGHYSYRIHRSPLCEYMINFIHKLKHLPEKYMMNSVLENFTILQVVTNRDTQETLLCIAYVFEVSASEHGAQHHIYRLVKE

As for `C=CS(=O)(=O)Nc1ccc(Cc2ccc3ccc(O)cc3c2)cc1`, the inhibition in assay [1] was determined as 82.5%; in [2] it was 18.9%.

Turning to `C=CS(=O)(=O)Nc1ccc(Cc2ccc3ccccc3c2)c(O)c1`, the inhibition in assay [1] stood at 92.1%; in assay [2] it was 44.3%.

`C=CS(=O)(=O)Nc1ccc(Cc2ccc3ccccc3c2)c(OC2CCNCC2)c1`: the inhibition in assay [1] was 6.5%; in [2] it was 1.2%. The inhibition entry in assay [3] is “Active”.

In the case of `C=CS(=O)(=O)Nc1ccc(NC(=O)c2ccc3ccccc3c2)cc1`, the inhibition in assay [1] turned out to be 35%; in [2], 15.6%.

`Cc1ccc(Oc2ccc(N)cc2)cc1`: in assay [4], the IC50 amounted to 32 µM. The inhibition result in assay [4] was “Dose-dependent effect”. The Activity entry in assay [5] and in [6] was “Dose-dependent effect” throughout. The outcome in assay [7], in assay [11] and in assay [12] was Active. For the same compound, the Kd in [8] came out at 41 µM. Besides, the ΔTm in assay [9] is 4.5 °C; in assay [10], 3.1 °C.

`C=CS(=O)(=O)Nc1ccc(C(=O)Nc2ccc3c(c2)CCNC3)cc1`: the figures for the inhibition in assay [1] and in assay [2] were 10.1% and 0.3%, respectively.

Regarding `O=C(O)c1ccccc1Nc1cccc(C(F)(F)F)c1` [FLUFENAMIC ACID], in assay [4], the IC50 was 54 µM. The inhibition result in assay [4] was “Dose-dependent effect”. The Kd in assay [8] turned out to be 84 µM; in assay [13], 73 µM.

With `C=CS(=O)(=O)Nc1ccc2c(c1)CCN(C(=O)c1ccccc1)C2`, the figures for the inhibition in assay [1] and in assay [2] were 25.4% and 5.4%, respectively.

Consider `C=CS(=O)(=O)Nc1ccc(Cc2ccccc2)cc1`, for which the results for the inhibition in [1] and in [2] were 92.5% and 59.2%, respectively.

On to `C=CS(=O)(=O)Nc1ccc(OCc2ccccc2)cc1`, for which the inhibition in [1] came out at 52.5%; in assay [2], 21%.

With `C=CS(=O)(=O)Oc1ccc(Oc2ccccc2)cc1`, the inhibition in assay [1] came to 94.8%; in assay [2] it was 62.2%.

With `C=CS(=O)(=O)Nc1ccc2ccccc2c1`, the inhibition in assay [1] came to 1.1%; in assay [2], 8.4%.

Turning to `C=CS(=O)(=O)Nc1ccccc1Oc1ccccc1`, the inhibition in assay [1] was 25.2%; in assay [2] it was -4.1%.
